Results from publication PMC9688344, “[^225Ac]Ac-SibuDAB for Targeted Alpha Therapy of Prostate Cancer: Preclinical Evaluation and Comparison with [^225Ac]Ac-PSMA-617” (Cancers, 2022).

Key:
[1] = molecular target: T1, PSMA (Homo sapiens, UniProt Q04609); test: PSMA-binding affinity (KD values) on PC-3 PIP cells; settings: on ice
T1 construct: expressed in transfected cells; host or cells: PC-3 PIP prostate cancer cells (transduced to express PSMA), provided by Prof; Dr. Martin Pomper, Johns Hopkins University

[2] = tested on: PSMA-positive PC-3 PIP cells; test: Cell uptake and internalization; assay type: cell-based; settings: 4 h incubation; % of total added activity
[3] = PBS/n-octanol distribution coefficient (logD); assay type: physicochemical; settings: PBS pH 7.4/n-octanol
[4] = tested on: PC3-PIP/flu tumor-bearing mice; test: Biodistribution studies; assay type: in vivo, BALB/c nude mice
[5] = Radioligand integrity by thin-layer chromatography; assay type: physicochemical; settings: over a period of 48 h
Method: The PSMA ligands used in this study were synthesized using solid-phase chemistry methods as previously reported. The labeling of the PSMA ligands with actinium-225 was performed at ITM Medical Isotopes GmbH, Munich, Germany (Supplementary Material: Section S1). The radioligands (~50 kBq/nmol; ~0.5 MBq/mL) were shipped to the Paul Scherrer Institute (PSI) overnight followed by assessing their integrity using thin-layer chromatography. […] Depending on the experiment, the molar activity of the radioligands was adjusted by adding unlabeled ligand and the final formulation was prepared by adding vehicle (saline with 0.05% bovine serum albumin (BSA)) to obtain the desired activity concentration. Radiolabeling of SibuDAB with lutetium-177 (5–10 MBq/nmol) was performed as previously reported.

[6] = tested on: PSMA-negative PC-3 flu cells; test: Cell uptake in PSMA-negative cells; assay type: cell-based

T1 sequence (Q04609 whole entry): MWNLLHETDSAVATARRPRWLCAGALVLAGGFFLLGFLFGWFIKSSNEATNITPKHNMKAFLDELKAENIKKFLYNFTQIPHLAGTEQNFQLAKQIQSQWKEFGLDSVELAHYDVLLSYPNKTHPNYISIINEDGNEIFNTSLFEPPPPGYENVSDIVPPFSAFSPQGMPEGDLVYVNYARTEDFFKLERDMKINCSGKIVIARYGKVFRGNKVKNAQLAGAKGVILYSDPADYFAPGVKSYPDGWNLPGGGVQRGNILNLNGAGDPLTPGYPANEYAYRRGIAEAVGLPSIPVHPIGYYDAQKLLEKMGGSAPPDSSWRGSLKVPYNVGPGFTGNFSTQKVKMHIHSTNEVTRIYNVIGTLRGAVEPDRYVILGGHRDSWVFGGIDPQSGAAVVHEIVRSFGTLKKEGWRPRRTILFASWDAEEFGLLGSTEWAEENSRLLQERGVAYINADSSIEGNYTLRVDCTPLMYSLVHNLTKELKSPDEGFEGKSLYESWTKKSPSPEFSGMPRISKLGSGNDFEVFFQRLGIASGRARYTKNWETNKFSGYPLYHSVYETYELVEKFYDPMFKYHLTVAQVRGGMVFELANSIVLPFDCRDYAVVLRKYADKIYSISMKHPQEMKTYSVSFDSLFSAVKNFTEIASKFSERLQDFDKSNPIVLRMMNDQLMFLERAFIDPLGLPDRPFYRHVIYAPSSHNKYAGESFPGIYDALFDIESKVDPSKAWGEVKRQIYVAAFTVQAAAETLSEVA

SMILES: O=C([O-])CN1CCN(CC(=O)[O-])CCN(CC(=O)NCC2CCC(C(=O)NC(Cc3ccc4ccccc4c3)C(=O)NCCCCC(NC(=O)NC(CCC(=O)O)C(=O)O)C(=O)O)CC2)CCN(CC(=O)[O-])CC1.[225Ac+3] (stereo not drawn) [[^225Ac]Ac-PSMA-617]
- Kd [1]: 11 nM
- Cell uptake [2]: 63 ± 5%
- Internalization (internalized fraction) [2]: 19 ± 3%
- logD value [3]: ≤ −3.9
- Blood, accumulated activity ([4]; 1 h p.i.): 0.62 ± 0.12 % IA/g
- Bone, accumulated activity ([4]; 1 h p.i.): 0.46 ± 0.13 % IA/g
- Heart, accumulated activity ([4]; 1 h p.i.): 0.35 ± 0.09 % IA/g
- Intestines, accumulated activity ([4]; 1 h p.i.): 0.29 ± 0.12 % IA/g
- Kidneys, accumulated activity ([4]; 1 h p.i.): 12 ± 3 % IA/g
- Liver, accumulated activity ([4]; 1 h p.i.): 0.46 ± 0.10 % IA/g
- Lung, accumulated activity ([4]; 1 h p.i.): 0.76 ± 0.23 % IA/g
- Muscle, accumulated activity ([4]; 1 h p.i.): 0.18 ± 0.06 % IA/g
- PC-3 PIP tumor, accumulated activity ([4]; 1 h p.i.): 46 ± 13 % IA/g
- PC-3 flu tumor, accumulated activity ([4]; 1 h p.i.): 0.30 ± 0.06 % IA/g
- Salivary glands, accumulated activity ([4]; 1 h p.i.): 0.30 ± 0.06 % IA/g
- Spleen, accumulated activity ([4]; 1 h p.i.): 0.68 ± 0.09 % IA/g
- Stomach, accumulated activity ([4]; 1 h p.i.): 0.37 ± 0.14 % IA/g
- Tumor-to-blood ratio ([4]; 1 h p.i.): 73 ± 7
- Tumor-to-kidney ratio ([4]; 1 h p.i.): 3.7 ± 0.3
- Tumor-to-liver ratio ([4]; 1 h p.i.): 99 ± 8
- Blood, accumulated activity ([4]; 4 h p.i.): ≤ 0.10 % IA/g
- Bone, accumulated activity ([4]; 4 h p.i.): 0.14 ± 0.04 % IA/g
- Heart, accumulated activity ([4]; 4 h p.i.): ≤ 0.10 % IA/g
- Intestines, accumulated activity ([4]; 4 h p.i.): ≤ 0.10 % IA/g
- Kidneys, accumulated activity ([4]; 4 h p.i.): 3.5 ± 0.6 % IA/g
- Liver, accumulated activity ([4]; 4 h p.i.): 0.31 ± 0.04 % IA/g
- Lung, accumulated activity ([4]; 4 h p.i.): ≤ 0.10 % IA/g
- Muscle, accumulated activity ([4]; 4 h p.i.): ≤ 0.10 % IA/g
- PC-3 PIP tumor, accumulated activity ([4]; 4 h p.i.): 43 ± 10 % IA/g
- PC-3 flu tumor, accumulated activity ([4]; 4 h p.i.): 0.11 ± 0.02 % IA/g
- Salivary glands, accumulated activity ([4]; 4 h p.i.): ≤ 0.10 % IA/g
- Spleen, accumulated activity ([4]; 4 h p.i.): 0.12 ± 0.05 % IA/g
- Stomach, accumulated activity ([4]; 4 h p.i.): ≤ 0.10 % IA/g
- Tumor-to-blood ratio ([4]; 4 h p.i.): 2593 ± 825
- Tumor-to-kidney ratio ([4]; 4 h p.i.): 13 ± 4
- Tumor-to-liver ratio ([4]; 4 h p.i.): 142 ± 23
- Blood, accumulated activity ([4]; 24 h p.i.): ≤ 0.10 % IA/g
- Bone, accumulated activity ([4]; 24 h p.i.): 0.11 ± 0.01 % IA/g
- Heart, accumulated activity ([4]; 24 h p.i.): ≤ 0.10 % IA/g
- Intestines, accumulated activity ([4]; 24 h p.i.): ≤ 0.10 % IA/g
- Kidneys, accumulated activity ([4]; 24 h p.i.): 1.2 ± 0.2 % IA/g
- Liver, accumulated activity ([4]; 24 h p.i.): 0.39 ± 0.06 % IA/g
- Lung, accumulated activity ([4]; 24 h p.i.): ≤ 0.10 % IA/g
- Muscle, accumulated activity ([4]; 24 h p.i.): ≤ 0.10 % IA/g
- PC-3 PIP tumor, accumulated activity ([4]; 24 h p.i.): 37 ± 9 % IA/g
- PC-3 flu tumor, accumulated activity ([4]; 24 h p.i.): 0.11 ± 0.08 % IA/g
- Salivary glands, accumulated activity ([4]; 24 h p.i.): ≤ 0.10 % IA/g
- Spleen, accumulated activity ([4]; 24 h p.i.): 0.13 ± 0.04 % IA/g
- Stomach, accumulated activity ([4]; 24 h p.i.): ≤ 0.10 % IA/g
- Tumor-to-blood ratio ([4]; 24 h p.i.): 4991 ± 3208
- Tumor-to-kidney ratio ([4]; 24 h p.i.): 33 ± 9
- Tumor-to-liver ratio ([4]; 24 h p.i.): 97 ± 20
- Blood, accumulated activity ([4]; 48 h p.i.): ≤ 0.10 % IA/g
- Bone, accumulated activity ([4]; 48 h p.i.): 0.12 ± 0.04 % IA/g
- Heart, accumulated activity ([4]; 48 h p.i.): ≤ 0.10 % IA/g
- Intestines, accumulated activity ([4]; 48 h p.i.): ≤ 0.10 % IA/g
- Kidneys, accumulated activity ([4]; 48 h p.i.): 0.79 ± 0.13 % IA/g
- Liver, accumulated activity ([4]; 48 h p.i.): 0.44 ± 0.16 % IA/g
- Lung, accumulated activity ([4]; 48 h p.i.): ≤ 0.10 % IA/g
- Muscle, accumulated activity ([4]; 48 h p.i.): ≤ 0.10 % IA/g
- PC-3 PIP tumor, accumulated activity ([4]; 48 h p.i.): 31 ± 3 % IA/g
- PC-3 flu tumor, accumulated activity ([4]; 48 h p.i.): 0.26 ± 0.4 % IA/g
- Salivary glands, accumulated activity ([4]; 48 h p.i.): ≤ 0.10 % IA/g
- Spleen, accumulated activity ([4]; 48 h p.i.): 0.13 ± 0.02 % IA/g
- Stomach, accumulated activity ([4]; 48 h p.i.): ≤ 0.10 % IA/g
- Tumor-to-blood ratio ([4]; 48 h p.i.): 1716 ± 860
- Tumor-to-kidney ratio ([4]; 48 h p.i.): 37 ± 6
- Tumor-to-liver ratio ([4]; 48 h p.i.): 68 ± 15
- intact radioligand [5]: > 99%
- Cell uptake [6]: < 1%

SMILES: CC(C)Cc1ccc(C(C)C(=O)NC(CCN)C(=O)NCCCCC(NC(=O)CN2CCN(CC(=O)[O-])CCN(CC(=O)[O-])CCN(CC(=O)[O-])CC2)C(=O)NCC2CCC(C(=O)NC(Cc3ccc4ccccc4c3)C(=O)NCCCCC(NC(=O)NC(CCC(=O)O)C(=O)O)C(=O)O)CC2)cc1.[225Ac+3] (stereo not drawn) [[^225Ac]Ac-SibuDAB]
- Kd [1]: 17 nM
- Cell uptake [2]: 59 ± 1%
- Internalization (internalized fraction) [2]: 25 ± 5%
- logD value [3]: −2.5 ± 0.1
- Blood, accumulated activity ([4]; 1 h p.i.): 23 ± 2 % IA/g
- Bone, accumulated activity ([4]; 1 h p.i.): 2.5 ± 0.2 % IA/g
- Heart, accumulated activity ([4]; 1 h p.i.): 7.4 ± 0.9 % IA/g
- Intestines, accumulated activity ([4]; 1 h p.i.): 2.6 ± 0.5 % IA/g
- Kidneys, accumulated activity ([4]; 1 h p.i.): 18 ± 1 % IA/g
- Liver, accumulated activity ([4]; 1 h p.i.): 4.4 ± 0.4 % IA/g
- Lung, accumulated activity ([4]; 1 h p.i.): 19 ± 2 % IA/g
- Muscle, accumulated activity ([4]; 1 h p.i.): 2.0 ± 0.4 % IA/g
- PC-3 PIP tumor, accumulated activity ([4]; 1 h p.i.): 20 ± 2 % IA/g
- PC-3 flu tumor, accumulated activity ([4]; 1 h p.i.): 4.2 ± 1.1 % IA/g
- Salivary glands, accumulated activity ([4]; 1 h p.i.): 4.7 ± 0.4 % IA/g
- Spleen, accumulated activity ([4]; 1 h p.i.): 3.5 ± 0.3 % IA/g
- Stomach, accumulated activity ([4]; 1 h p.i.): 2.4 ± 0.4 % IA/g
- Tumor-to-blood ratio ([4]; 1 h p.i.): 0.9 ± 0.1
- Tumor-to-kidney ratio ([4]; 1 h p.i.): 1.2 ± 0.1
- Tumor-to-liver ratio ([4]; 1 h p.i.): 4.6 ± 0.5
- Blood, accumulated activity ([4]; 4 h p.i.): 16 ± 2 % IA/g
- Bone, accumulated activity ([4]; 4 h p.i.): 2.2 ± 0.5 % IA/g
- Heart, accumulated activity ([4]; 4 h p.i.): 5.5 ± 0.7 % IA/g
- Intestines, accumulated activity ([4]; 4 h p.i.): 2.2 ± 0.3 % IA/g
- Kidneys, accumulated activity ([4]; 4 h p.i.): 19 ± 1 % IA/g
- Liver, accumulated activity ([4]; 4 h p.i.): 4.0 ± 0.3 % IA/g
- Lung, accumulated activity ([4]; 4 h p.i.): 10 ± 2 % IA/g
- Muscle, accumulated activity ([4]; 4 h p.i.): 1.9 ± 0.2 % IA/g
- PC-3 PIP tumor, accumulated activity ([4]; 4 h p.i.): 45 ± 5 % IA/g
- PC-3 flu tumor, accumulated activity ([4]; 4 h p.i.): 4.1 ± 0.8 % IA/g
- Salivary glands, accumulated activity ([4]; 4 h p.i.): 3.7 ± 0.2 % IA/g
- Spleen, accumulated activity ([4]; 4 h p.i.): 3.0 ± 0.5 % IA/g
- Stomach, accumulated activity ([4]; 4 h p.i.): 1.8 ± 0.3 % IA/g
- Tumor-to-blood ratio ([4]; 4 h p.i.): 2.9 ± 0.3
- Tumor-to-kidney ratio ([4]; 4 h p.i.): 2.3 ± 0.1
- Tumor-to-liver ratio ([4]; 4 h p.i.): 11 ± 1
- Blood, accumulated activity ([4]; 24 h p.i.): 3.3 ± 0.7 % IA/g
- Bone, accumulated activity ([4]; 24 h p.i.): 0.81 ± 0.10 % IA/g
- Heart, accumulated activity ([4]; 24 h p.i.): 1.5 ± 0.4 % IA/g
- Intestines, accumulated activity ([4]; 24 h p.i.): 0.85 ± 0.14 % IA/g
- Kidneys, accumulated activity ([4]; 24 h p.i.): 18 ± 2 % IA/g
- Liver, accumulated activity ([4]; 24 h p.i.): 3.3 ± 0.4 % IA/g
- Lung, accumulated activity ([4]; 24 h p.i.): 2.9 ± 0.4 % IA/g
- Muscle, accumulated activity ([4]; 24 h p.i.): 0.58 ± 0.06 % IA/g
- PC-3 PIP tumor, accumulated activity ([4]; 24 h p.i.): 80 ± 8 % IA/g
- PC-3 flu tumor, accumulated activity ([4]; 24 h p.i.): 2.4 ± 0.9 % IA/g
- Salivary glands, accumulated activity ([4]; 24 h p.i.): 1.7 ± 0.2 % IA/g
- Spleen, accumulated activity ([4]; 24 h p.i.): 2.3 ± 0.5 % IA/g
- Stomach, accumulated activity ([4]; 24 h p.i.): 0.72 ± 0.14 % IA/g
- Tumor-to-blood ratio ([4]; 24 h p.i.): 25 ± 6
- Tumor-to-kidney ratio ([4]; 24 h p.i.): 4.7 ± 0.9
- Tumor-to-liver ratio ([4]; 24 h p.i.): 25 ± 5
- Blood, accumulated activity ([4]; 48 h p.i.): 1.1 ± 0.2 % IA/g
- Bone, accumulated activity ([4]; 48 h p.i.): 0.48 ± 0.09 % IA/g
- Heart, accumulated activity ([4]; 48 h p.i.): 0.73 ± 0.17 % IA/g
- Intestines, accumulated activity ([4]; 48 h p.i.): 0.40 ± 0.08 % IA/g
- Kidneys, accumulated activity ([4]; 48 h p.i.): 8.6 ± 1.1 % IA/g
- Liver, accumulated activity ([4]; 48 h p.i.): 2.7 ± 0.5 % IA/g
- Lung, accumulated activity ([4]; 48 h p.i.): 1.3 ± 0.3 % IA/g
- Muscle, accumulated activity ([4]; 48 h p.i.): 0.30 ± 0.11 % IA/g
- PC-3 PIP tumor, accumulated activity ([4]; 48 h p.i.): 64 ± 11 % IA/g
- PC-3 flu tumor, accumulated activity ([4]; 48 h p.i.): 1.5 ± 0.4 % IA/g
- Salivary glands, accumulated activity ([4]; 48 h p.i.): 0.92 ± 0.19 % IA/g
- Spleen, accumulated activity ([4]; 48 h p.i.): 1.9 ± 0.5 % IA/g
- Stomach, accumulated activity ([4]; 48 h p.i.): 0.38 ± 0.04 % IA/g
- Tumor-to-blood ratio ([4]; 48 h p.i.): 62 ± 11
- Tumor-to-kidney ratio ([4]; 48 h p.i.): 7.4 ± 1.3
- Tumor-to-liver ratio ([4]; 48 h p.i.): 24 ± 4
- tumor uptake, higher than for [225Ac]Ac-PSMA-617 ([4]; 48 h p.i., PC-3 PIP tumor): 2 fold
- intact radioligand [5]: > 99%
- Cell uptake [6]: < 1%
